Values of other authors as cited in patent US20040058899A1, “Use of epothilones and analogs in conjunction with ophthalmic surgery” (priority 2002, published 2004).

Tested on: tumor-implanted mice
Details: for toxic effects / animal deaths: comparably effective doses

| SMILES | tumor regression | toxic effects / animal deaths |
| --- | --- | --- |
| C/C1=C/C[C@@H](/C(C)=C/c2csc(C)n2)OC(=O)C[C@H](O)C(C)(C)C(=O)[C@H](C)[C@@H](O)[C@@H](C)CCC1 [deoxyepothilone B] | complete tumor regression | without any noticeable toxic effects |
| COc1cccc2c1C(=O)c1c(O)c3c(c(O)c1C2=O)C[C@@](O)(C(=O)CO)C[C@@H]3O[C@H]1C[C@H](N)[C@H](O)[C@H](C)O1 [adriamycin] |  | caused some animal deaths |
| CC(=O)O[C@H]1C(=O)[C@@]2(C)[C@H]([C@H](OC(=O)c3ccccc3)[C@]3(O)C[C@H](OC(=O)[C@H](O)[C@@H](NC(=O)c4ccccc4)c4ccccc4)C(C)=C1C3(C)C)[C@]1(OC(C)=O)CO[C@@H]1C[C@@H]2O [paclitaxel] |  | caused some animal deaths |
